{"source": "patent US20070014833A1", "about": "“Treatment of eye disorders with sirtuin modulators” (priority 2005, published 2007)", "key": {"[1]": {"system": "retinal ganglion cells (RGCs)", "experiment": "Retinal ganglion cell (RGC) counts in EAE mice with acute optic neuritis, intravitreal treatment", "conditions": "for RGC loss: EAE eyes with optic neuritis", "protocol": "Study outline: The neuroprotective effects of nicotinamide riboside were examined in EAE mice with optic neuritis. […] To induce EAE, mice were immunized several days later with 300 μg PLP emulsified in complete Freund's adjuvant (CFA), and control mice (without EAE) were mock-immunized with phosphate buffered saline (PBS) in CFA. All mice received 200 ng intraperitoneal pertussis toxin (PT) on the day of immunization (day 0) and again on day 2.\nEyes were treated with nicotinamide riboside by intravitreal (ivt) injections with a volume of 0.8 μl/injection of a stock solution of either 0.1 M or 0.4 M nicotinamide riboside in PBS (Groups 2, 4 and 5). […] Treament with nicotinamide riboside, as well as PBS control injections, were given ivt on days 0, 4, 7 and 11. Mice were scored daily for clinical EAE, and were sacrificed on day 14 by overdose with ketamine and xylazine.\nRetinas were dissected and whole-mounted for fluorescent microscopy. RGC numbers were quantified by counting FG-labeled cells in 12 standardized fields in each retina. Optic nerves were dissected and processed for histology. Cut sections stained by H & E were evaluated for the presence of inflammatory cells to determine acute optic neuritis. RGCs were compared between PBS-treated and nicotinamide riboside-treated eyes with optic neuritis to determine whether nicotinamide riboside prevents loss of neurons."}, "optic neuritis / EAE": {"system": "optic neuritis / EAE", "experiment": "Incidence of optic neuritis (optic nerve histology, H & E) and clinical EAE score in PLP-immunized mice", "assay_type": "in vivo, SJL/J mice"}}}
{"smiles": "NC(=O)c1ccc[n+]([C@@H]2O[C@H](CO)[C@@H](O)[C@H]2O)c1", "note": "[nicotinamide riboside]", "values": [{"measurement": "Preserving RGCs in an acute optic neuritis model (FIG. 19)", "setting": "[1]", "result": "effective"}, {"measurement": "RGC loss", "setting": "[1]; 100 mM treatment (Group 4) vs PBS-treated (Group 3)", "result": "reduced"}, {"measurement": "RGC loss", "setting": "[1]; 400 mM treatment (Group 5) vs PBS-treated (Group 3)", "result": "completely blocked"}, {"measurement": "Neuroprotection of RGCs during acute optic neuritis in EAE", "setting": "[1]; dose-dependent manner", "result": "neuroprotective"}, {"measurement": "Toxicity to RGCs", "setting": "[1]; mouse, in vivo", "result": "not toxic"}, {"measurement": "RGC numbers, non-EAE eyes treated vs control eyes", "setting": "[1]; non-EAE eyes, Group 2 vs Group 1", "result": "no difference"}, {"measurement": "Inflammatory cell infiltration", "setting": "optic neuritis / EAE; optic nerve", "result": "does not prevent"}, {"measurement": "Clinical EAE", "setting": "optic neuritis / EAE; treated mice vs controls", "result": "did not differ"}, {"measurement": "Incidence of optic neuritis", "setting": "optic neuritis / EAE; treated mice vs controls", "result": "did not differ"}]}
